Laboratory results: publication PMC7568253, “Evaluation of two xenobiotic reductases from Pseudomonas putida for their suitability for magnetic nanoparticle‐directed enzyme prodrug therapy as a novel approach to cancer treatment” (MicrobiologyOpen, 2020)

Biological target: T1, XenA-his (Pseudomonas putida, UniProt Q9R9V9)
T1 construct: about 39 kDa, described as monomeric flavoprotein
T1 sequence (Q9R9V9 1-363): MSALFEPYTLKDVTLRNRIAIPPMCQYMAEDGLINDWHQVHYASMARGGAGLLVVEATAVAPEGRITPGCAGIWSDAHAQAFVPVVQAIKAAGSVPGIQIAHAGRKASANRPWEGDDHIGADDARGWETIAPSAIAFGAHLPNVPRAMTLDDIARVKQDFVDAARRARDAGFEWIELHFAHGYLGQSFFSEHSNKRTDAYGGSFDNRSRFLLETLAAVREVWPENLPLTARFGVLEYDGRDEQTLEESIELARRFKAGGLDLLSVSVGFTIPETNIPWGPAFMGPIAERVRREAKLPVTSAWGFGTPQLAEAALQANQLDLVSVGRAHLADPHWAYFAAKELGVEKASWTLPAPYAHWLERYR
Assay: reduction of nitro groups tested with purified enzyme
Type: biochemical

`O=[N+]([O-])OCC(CO[N+](=O)[O-])O[N+](=O)[O-]` [nitro-glycerin] was tested, and the “reduction of nitro groups tested with purified enzyme” value was “it was able to reduce the NO2 groups present in the substrate”.
